Some results are limits rather than exact numbers.

What is called AC50 is the concentration giving half of the maximal activity seen.

Test [1] has as its target Voltage-dependent L-type calcium channel subunit alpha-1C (Homo sapiens, UniProt Q13936). It is filed as functional, cell-based.
Test [2] deals with T1, Amine oxidase [flavin-containing] A (Homo sapiens, UniProt P21397).
T1 sequence (P21397 whole entry): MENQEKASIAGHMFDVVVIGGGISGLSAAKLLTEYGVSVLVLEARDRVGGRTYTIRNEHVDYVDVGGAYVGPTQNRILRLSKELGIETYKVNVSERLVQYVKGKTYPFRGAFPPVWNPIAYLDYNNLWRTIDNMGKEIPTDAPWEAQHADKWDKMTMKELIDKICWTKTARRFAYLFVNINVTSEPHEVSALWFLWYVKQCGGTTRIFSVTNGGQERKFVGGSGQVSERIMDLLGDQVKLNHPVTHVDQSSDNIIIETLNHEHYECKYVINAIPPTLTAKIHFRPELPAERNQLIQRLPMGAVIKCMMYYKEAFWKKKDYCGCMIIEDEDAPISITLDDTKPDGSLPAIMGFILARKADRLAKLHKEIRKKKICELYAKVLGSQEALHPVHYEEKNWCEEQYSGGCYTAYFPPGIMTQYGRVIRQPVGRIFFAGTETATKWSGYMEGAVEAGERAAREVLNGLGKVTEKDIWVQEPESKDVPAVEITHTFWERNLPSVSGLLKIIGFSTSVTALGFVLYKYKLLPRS
It is filed as functional.

The target in test [3] is T2, D(1A) dopamine receptor (Homo sapiens, UniProt P21728). It is filed as functional, cell-based.
Test [4] addresses T3, Muscarinic acetylcholine receptor M1 (Homo sapiens, UniProt P11229).
T3 sequence (P11229 whole entry): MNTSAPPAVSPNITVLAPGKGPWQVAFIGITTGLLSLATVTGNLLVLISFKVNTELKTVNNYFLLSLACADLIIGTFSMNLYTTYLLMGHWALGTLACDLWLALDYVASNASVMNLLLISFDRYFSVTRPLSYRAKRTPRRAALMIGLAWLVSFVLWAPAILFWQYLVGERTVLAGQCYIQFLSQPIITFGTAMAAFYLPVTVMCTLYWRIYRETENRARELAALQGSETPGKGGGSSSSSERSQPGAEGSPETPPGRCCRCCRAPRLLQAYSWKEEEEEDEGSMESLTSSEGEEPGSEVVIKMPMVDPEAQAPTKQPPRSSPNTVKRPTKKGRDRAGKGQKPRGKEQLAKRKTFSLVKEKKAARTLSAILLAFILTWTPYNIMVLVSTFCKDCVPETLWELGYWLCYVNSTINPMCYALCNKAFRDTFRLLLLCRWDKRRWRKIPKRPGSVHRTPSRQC
It is filed as functional, cell-based.

Another test has as its target D(3) dopamine receptor (Homo sapiens, UniProt P35462).
The target in another test is Mu-type opioid receptor (Homo sapiens, UniProt P35372).
For test [5], the target named is Prostaglandin G/H synthase 1 (Homo sapiens, UniProt P23219). It is filed as functional.
In test [6] the target is T4, Alpha-1A adrenergic receptor (Homo sapiens, UniProt P35348).
T4 sequence (P35348 whole entry): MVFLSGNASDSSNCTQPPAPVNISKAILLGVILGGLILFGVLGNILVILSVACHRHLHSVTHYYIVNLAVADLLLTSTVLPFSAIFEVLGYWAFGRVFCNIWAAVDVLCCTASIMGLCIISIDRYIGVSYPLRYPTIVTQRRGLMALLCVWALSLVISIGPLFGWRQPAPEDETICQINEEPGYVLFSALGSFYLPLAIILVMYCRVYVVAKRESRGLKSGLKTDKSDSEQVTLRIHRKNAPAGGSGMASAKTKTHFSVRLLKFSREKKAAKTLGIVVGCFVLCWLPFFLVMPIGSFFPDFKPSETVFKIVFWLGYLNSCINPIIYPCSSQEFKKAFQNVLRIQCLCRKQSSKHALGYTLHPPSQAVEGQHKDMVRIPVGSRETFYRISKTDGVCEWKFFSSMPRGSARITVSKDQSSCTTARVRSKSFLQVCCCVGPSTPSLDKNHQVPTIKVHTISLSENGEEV

Test [7] deals with 5-hydroxytryptamine receptor 2B (Homo sapiens, UniProt P41595). Format: functional, cell-based.
Test [8] has as its target T2, D(1A) dopamine receptor.
The target of test [9] is Sodium-dependent noradrenaline transporter (Homo sapiens, UniProt P23975).
Test [10] has as its target T5, Muscarinic acetylcholine receptor M2 (Homo sapiens, UniProt P08172).
T5 sequence (P08172 whole entry): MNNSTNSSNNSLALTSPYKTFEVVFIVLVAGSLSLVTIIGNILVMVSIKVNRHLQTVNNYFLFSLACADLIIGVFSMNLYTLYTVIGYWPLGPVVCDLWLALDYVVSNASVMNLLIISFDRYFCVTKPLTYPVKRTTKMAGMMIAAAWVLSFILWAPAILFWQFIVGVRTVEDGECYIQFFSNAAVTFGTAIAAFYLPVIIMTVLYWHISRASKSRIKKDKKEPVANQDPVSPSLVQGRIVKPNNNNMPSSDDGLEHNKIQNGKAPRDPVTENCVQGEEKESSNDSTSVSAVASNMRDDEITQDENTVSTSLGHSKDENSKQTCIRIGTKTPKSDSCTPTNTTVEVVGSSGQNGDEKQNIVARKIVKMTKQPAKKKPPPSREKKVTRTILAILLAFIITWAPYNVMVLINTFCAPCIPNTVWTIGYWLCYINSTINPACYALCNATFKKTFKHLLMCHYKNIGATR

The target in test [11] is Sodium-dependent dopamine transporter (Homo sapiens, UniProt Q01959).
Test [12] has as its target T2, D(1A) dopamine receptor. This is another data set of the same source.
Also: assay procedure not described here.

T2 sequence (P21728 whole entry): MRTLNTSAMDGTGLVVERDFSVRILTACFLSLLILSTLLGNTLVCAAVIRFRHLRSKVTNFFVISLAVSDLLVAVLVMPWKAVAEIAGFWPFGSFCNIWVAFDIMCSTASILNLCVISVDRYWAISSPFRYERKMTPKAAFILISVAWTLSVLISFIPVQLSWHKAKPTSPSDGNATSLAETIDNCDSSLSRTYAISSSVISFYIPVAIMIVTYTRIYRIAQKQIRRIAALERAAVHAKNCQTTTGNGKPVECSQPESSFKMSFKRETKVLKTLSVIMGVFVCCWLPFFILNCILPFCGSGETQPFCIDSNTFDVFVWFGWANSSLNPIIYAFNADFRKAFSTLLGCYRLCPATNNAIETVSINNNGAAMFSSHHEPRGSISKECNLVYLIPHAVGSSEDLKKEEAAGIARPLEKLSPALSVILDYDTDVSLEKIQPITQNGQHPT
Sequence of 5-hydroxytryptamine receptor 2B (P41595 whole entry): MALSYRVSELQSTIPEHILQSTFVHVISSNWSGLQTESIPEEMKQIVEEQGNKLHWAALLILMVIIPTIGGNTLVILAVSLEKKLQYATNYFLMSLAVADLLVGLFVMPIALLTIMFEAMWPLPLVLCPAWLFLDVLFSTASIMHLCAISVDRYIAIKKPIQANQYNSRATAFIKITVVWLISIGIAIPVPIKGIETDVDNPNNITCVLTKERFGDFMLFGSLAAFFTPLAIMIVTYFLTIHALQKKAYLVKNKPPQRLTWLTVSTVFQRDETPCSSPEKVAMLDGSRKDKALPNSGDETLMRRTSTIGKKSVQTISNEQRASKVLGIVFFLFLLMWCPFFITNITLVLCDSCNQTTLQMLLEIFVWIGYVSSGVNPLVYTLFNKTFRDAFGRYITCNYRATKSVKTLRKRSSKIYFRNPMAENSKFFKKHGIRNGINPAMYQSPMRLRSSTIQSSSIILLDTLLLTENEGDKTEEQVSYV
Sequence of Voltage-dependent L-type calcium channel subunit alpha-1C (Q13936 whole entry): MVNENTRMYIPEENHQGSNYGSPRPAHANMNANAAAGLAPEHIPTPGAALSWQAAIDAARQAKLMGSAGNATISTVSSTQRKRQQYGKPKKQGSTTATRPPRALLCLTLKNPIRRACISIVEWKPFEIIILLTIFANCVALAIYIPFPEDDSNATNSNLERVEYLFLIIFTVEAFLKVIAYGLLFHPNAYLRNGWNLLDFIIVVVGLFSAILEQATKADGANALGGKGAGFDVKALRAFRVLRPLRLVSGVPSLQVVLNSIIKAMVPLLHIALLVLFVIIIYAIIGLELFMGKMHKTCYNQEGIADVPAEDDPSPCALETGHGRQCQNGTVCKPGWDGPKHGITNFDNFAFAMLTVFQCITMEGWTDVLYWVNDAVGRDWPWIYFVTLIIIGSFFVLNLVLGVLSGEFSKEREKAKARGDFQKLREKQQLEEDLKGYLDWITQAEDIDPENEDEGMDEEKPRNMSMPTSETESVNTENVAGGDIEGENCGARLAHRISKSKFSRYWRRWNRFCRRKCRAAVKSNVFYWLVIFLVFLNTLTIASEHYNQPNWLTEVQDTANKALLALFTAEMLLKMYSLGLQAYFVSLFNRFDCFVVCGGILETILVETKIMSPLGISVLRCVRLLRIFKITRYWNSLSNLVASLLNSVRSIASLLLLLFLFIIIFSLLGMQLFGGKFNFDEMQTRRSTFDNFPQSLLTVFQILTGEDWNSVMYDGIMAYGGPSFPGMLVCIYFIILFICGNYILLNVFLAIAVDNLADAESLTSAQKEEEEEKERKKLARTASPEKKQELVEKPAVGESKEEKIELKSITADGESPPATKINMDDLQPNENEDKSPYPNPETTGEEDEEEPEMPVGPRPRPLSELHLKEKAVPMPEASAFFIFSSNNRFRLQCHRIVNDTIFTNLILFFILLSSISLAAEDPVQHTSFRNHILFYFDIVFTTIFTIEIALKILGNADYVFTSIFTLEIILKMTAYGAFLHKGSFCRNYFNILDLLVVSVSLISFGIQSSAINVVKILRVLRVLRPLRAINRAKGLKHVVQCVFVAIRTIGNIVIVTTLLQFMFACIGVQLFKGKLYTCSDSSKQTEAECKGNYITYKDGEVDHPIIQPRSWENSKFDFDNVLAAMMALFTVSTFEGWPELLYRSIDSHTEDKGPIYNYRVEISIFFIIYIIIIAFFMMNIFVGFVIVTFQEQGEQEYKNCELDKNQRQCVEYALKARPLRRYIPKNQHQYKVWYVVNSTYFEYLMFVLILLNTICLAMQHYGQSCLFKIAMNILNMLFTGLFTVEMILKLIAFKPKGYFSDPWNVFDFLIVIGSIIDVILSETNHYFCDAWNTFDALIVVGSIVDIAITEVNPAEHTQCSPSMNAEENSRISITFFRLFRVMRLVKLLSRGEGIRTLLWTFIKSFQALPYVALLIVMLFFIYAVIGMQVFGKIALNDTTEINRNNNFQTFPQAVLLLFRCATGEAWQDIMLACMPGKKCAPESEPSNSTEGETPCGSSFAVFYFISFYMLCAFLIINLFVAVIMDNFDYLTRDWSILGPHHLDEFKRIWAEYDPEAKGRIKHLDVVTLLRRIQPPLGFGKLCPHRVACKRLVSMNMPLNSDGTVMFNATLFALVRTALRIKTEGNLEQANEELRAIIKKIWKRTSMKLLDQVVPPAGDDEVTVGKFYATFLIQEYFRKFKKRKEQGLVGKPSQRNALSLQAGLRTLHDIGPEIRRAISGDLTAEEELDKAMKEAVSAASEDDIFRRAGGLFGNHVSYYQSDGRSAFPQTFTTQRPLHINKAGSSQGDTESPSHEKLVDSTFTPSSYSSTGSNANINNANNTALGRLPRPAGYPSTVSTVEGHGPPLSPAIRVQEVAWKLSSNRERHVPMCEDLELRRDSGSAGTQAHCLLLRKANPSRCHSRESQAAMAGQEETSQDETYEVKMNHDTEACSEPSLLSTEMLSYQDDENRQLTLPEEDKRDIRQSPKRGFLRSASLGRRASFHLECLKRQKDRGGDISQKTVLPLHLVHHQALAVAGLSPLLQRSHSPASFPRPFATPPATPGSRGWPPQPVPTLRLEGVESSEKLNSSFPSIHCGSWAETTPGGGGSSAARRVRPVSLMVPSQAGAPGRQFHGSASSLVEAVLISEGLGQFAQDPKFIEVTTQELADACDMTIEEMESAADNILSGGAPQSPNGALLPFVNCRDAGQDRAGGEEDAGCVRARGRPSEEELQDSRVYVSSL
Sequence of Mu-type opioid receptor (P35372 whole entry): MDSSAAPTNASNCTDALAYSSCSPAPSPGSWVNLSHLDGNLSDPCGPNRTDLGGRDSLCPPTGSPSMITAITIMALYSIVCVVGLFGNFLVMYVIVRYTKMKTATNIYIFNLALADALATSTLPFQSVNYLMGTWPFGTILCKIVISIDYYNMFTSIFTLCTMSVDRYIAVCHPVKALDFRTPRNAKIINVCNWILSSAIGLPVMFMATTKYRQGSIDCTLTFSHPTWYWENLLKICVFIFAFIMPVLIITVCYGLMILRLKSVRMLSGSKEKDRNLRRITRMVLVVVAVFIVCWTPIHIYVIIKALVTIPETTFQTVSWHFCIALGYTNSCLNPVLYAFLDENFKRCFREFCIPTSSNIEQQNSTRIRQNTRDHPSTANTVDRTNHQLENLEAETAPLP
Sequence of Sodium-dependent noradrenaline transporter (P23975 whole entry): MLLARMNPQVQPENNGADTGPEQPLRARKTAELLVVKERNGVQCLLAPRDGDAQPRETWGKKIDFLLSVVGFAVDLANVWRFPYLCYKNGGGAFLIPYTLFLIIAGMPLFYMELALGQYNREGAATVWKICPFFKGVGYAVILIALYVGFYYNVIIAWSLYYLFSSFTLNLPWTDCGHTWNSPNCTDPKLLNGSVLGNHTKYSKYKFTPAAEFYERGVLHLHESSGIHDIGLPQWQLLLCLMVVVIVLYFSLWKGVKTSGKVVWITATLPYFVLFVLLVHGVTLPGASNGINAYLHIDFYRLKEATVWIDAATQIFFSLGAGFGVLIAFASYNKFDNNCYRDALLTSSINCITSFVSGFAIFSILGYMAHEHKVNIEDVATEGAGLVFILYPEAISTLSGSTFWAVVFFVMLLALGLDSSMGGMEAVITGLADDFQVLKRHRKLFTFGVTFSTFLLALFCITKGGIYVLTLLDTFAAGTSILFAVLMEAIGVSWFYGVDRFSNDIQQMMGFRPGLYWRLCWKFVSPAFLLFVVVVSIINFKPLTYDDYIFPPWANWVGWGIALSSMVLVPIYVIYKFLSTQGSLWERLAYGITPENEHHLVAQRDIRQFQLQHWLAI
Sequence of D(3) dopamine receptor (P35462 whole entry): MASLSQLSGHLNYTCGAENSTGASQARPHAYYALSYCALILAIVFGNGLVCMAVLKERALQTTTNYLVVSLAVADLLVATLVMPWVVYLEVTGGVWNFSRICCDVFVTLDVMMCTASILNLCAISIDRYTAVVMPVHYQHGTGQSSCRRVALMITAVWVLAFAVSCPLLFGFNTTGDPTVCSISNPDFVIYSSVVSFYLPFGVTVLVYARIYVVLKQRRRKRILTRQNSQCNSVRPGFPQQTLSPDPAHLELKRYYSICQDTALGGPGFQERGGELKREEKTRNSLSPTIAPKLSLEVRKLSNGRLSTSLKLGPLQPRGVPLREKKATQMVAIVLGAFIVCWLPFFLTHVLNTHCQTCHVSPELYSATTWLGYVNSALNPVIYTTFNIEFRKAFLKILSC

Consider `N#Cc1ccccc1-c1cc(-c2ccccn2)cn(-c2ccccc2)c1=O`, for which, in [1], the AC50 is more than 30 µM.
In turn, `NCCCC(O)(P(=O)(O)O)P(=O)(O)O` [ALENDRONIC ACID] displayed an AC50 in test [2] of more than 30 µM.
Compound `O=C(CCCN1CCC(n2c(O)nc3ccccc32)CC1)c1ccc(F)cc1` [BENPERIDOL] returned a concentration at half-maximal activity (AC50) on D(1A) dopamine receptor [3] of 7.5 µM.
Compound `CCN(CC)C(=O)C1CN2CCc3cc(OC)c(OC)cc3C2CC1OC(C)=O` (centres undefined) [BENZQUINAMIDE] had a half-maximal activity concentration (AC50) in test [4] of more than 30 µM.
At D(1A) dopamine receptor [3], `CC(C)(C)NCC(O)c1cc(Cl)c(N)c(Cl)c1` (centres undefined) [CLENBUTEROL] registered an AC50 of more than 30 µM.
For `COC(=O)N[C@@H](C)CNc1nccc(-c2cn(C(C)C)nc2-c2cc(Cl)cc(NS(C)(=O)=O)c2F)n1` [ENCORAFENIB], the AC50 in [1] is more than 30 µM.
Regarding `C[n+]1ccccc1/C=N/O` [PRALIDOXIME], the AC50 (on D(3) dopamine receptor; on Mu-type opioid receptor; in test [5]; in test [6]; in test [2]; in test [7]) was more than 30 µM each time. Further, the AC50 (at D(1A) dopamine receptor [8]; in test [9]; in test [10]; in [11]; at D(1A) dopamine receptor [12]) was more than 30 µM each time.
For `CCCOC(C(=O)OC1CCN(C)CC1)(c1ccccc1)c1ccccc1` [PROPIVERINE], the half-maximal activity concentration (AC50) in test [4] was more than 30 µM.
On to COLISTIN, for which the AC50 on D(3) dopamine receptor was more than 30 µM; at Mu-type opioid receptor it was more than 30 µM; in test [5], 11.2 µM; in [6], more than 30 µM; in [2] it was more than 30 µM; in test [7] it was more than 30 µM. Moreover, the half-maximal activity concentration (AC50) is more than 30 µM on D(1A) dopamine receptor [8]; more than 30 µM in [9]; more than 30 µM in [10]; 26.6 µM in test [11]; more than 30 µM at D(1A) dopamine receptor [12].
